According to ChEMBL document CHEMBL5543086, “Discovery of novel NSAID hybrids as cPLA2/COX-2 dual inhibitors alleviating rheumatoid arthritis via inhibiting p38 MAPK pathway” (Eur J Med Chem, 2024):
Activity calls are given as the source filed them.

What was measured:
[1] = system: Rattus norvegicus; assay: (§1) Immunomodulatory activity in Freund's complete adjuvant induced Lewis rat model of arthritis assessed as increase in anti-IL-10 antibody expression in knee joint slices at 20 mg/kg, po administered every 24 to 48 hrs for 28 days post immunization starting from day 8 post immunization by immunohistochemistry analysis; format: functional, organism-based; settings: time 21.0 day
[2] = system: RAW264.7; assay: Antiinflammatory activity against LPS-induced mouse RAW264.7 cells assessed as inhibition of cPLA2 protein expression pretreated for 1 hr followed by LPS stimulation and measured after 24 hrs by Western blot analysis; format: functional, cell-based; settings: dose 2.5-10 µM, time 25.0 hrs
[3] = system: Rattus norvegicus; assay: Antiarthritic activity in Freund's complete adjuvant induced Lewis rat model of arthritis assessed as reduction in joint deformities at 20 mg/kg, po administered every 24 to 48 hrs for 28 days post immunization starting from day 8 post immunization; format: functional, organism-based; settings: time 21.0 day
[4] = Toxicity in male Wistar rat assessed as gastrointestinal damage by measuring level-2 ulcers with 1 to 3 mm area at 100 mg/kg administered by gavage and measured after 6 hrs; format: organism-based; settings: in vivo, po
[5] = Toxicity in male Wistar rat assessed as gastrointestinal damage by measuring level-1 ulcers with <1 mm area at 50 mg/kg administered by gavage and measured after 6 hrs; format: organism-based; settings: in vivo, po
[6] = organism: Mus musculus; assay: Antiinflammatory activity in mouse model of cotton pellet implantation-induced granuloma; format: functional, organism-based
[7] = system: Rattus norvegicus; assay: Antiarthritic activity in Freund's complete adjuvant induced Lewis rat model of arthritis assessed as reduction in TNFalpha level in serum at 20 mg/kg, po administered every 24 to 48 hrs for 28 days post immunization starting from day 8 post immunization by ELISA; format: functional, organism-based; settings: time 21.0 day
[8] = Toxicity in male Wistar rat assessed as gastrointestinal damage by measuring ulcer index at 50 mg/kg administered by gavage and measured after 6 hrs; format: organism-based; settings: in vivo, po
[9] = Toxicity in male Wistar rat assessed as gastrointestinal damage by measuring ulcer index at 100 mg/kg administered by gavage and measured after 6 hrs; format: organism-based; settings: in vivo, po
[10] = system: Rattus norvegicus; assay: Antiarthritic activity in Freund's complete adjuvant induced Lewis rat model of arthritis assessed as reduction in joint deformities induced walking and polyarthritis symptoms at 20 mg/kg, po administered every 24 to 48 hrs for 28 days post immunization starting from day 8 post immunization; format: functional, organism-based; settings: time 21.0 day
[11] = Toxicity in male Wistar rat assessed as gastrointestinal damage by measuring level-1 ulcers with <1 mm area at 100 mg/kg administered by gavage and measured after 6 hrs; format: organism-based; settings: in vivo, po
[12] = system: RAW264.7; assay: Cytotoxicity against LPS-induced mouse RAW264.7 cells assessed as reduction in cell viability at 30 uM pretreated for 1 hr followed by LPS addition and measured after 24 hrs by MTT assay; format: toxicity, cell-based; settings: raw264.7, 25 h
[13] = Toxicity in Lewis rat model of Freund's complete adjuvant induced arthritis assessed as effect on growth by measuring reduction in body weight at 20 mg/kg, po administered every 24 to 48 hrs for 28 days post immunization starting from day 8 post immunization; format: organism-based; settings: in vivo, 504 h, time 21 day
[14] = system: RAW264.7; assay: Antiinflammatory activity against LPS-induced mouse RAW264.7 cells assessed as inhibition of iNOS protein expression pretreated for 1 hr followed by LPS stimulation and measured after 24 hrs by Western blot analysis; format: functional, cell-based; settings: dose 2.5-10 µM, time 25.0 hrs
[15] = system: Rattus norvegicus; assay: Antiarthritic activity in Freund's complete adjuvant induced Lewis rat model of arthritis assessed as reduction in IL-6 level in serum at 20 mg/kg, po administered every 24 to 48 hrs for 28 days post immunization starting from day 8 post immunization by ELISA; format: functional, organism-based; settings: time 21.0 day
[16] = system: Rattus norvegicus; assay: as §1, with “decrease” for “increase”, “anti-IL-17” for “anti-IL-10”; format: functional, organism-based; settings: time 21.0 day
[17] = system: Rattus norvegicus; assay: Immunomodulatory activity in Freund's complete adjuvant induced Lewis rat model of arthritis assessed as increase in CD4positive CD25positive Treg cells in peripheral blood at 20 mg/kg, po administered every 24 hrs for 28 days post immunization starting from day 8 post immunization by flow cytometry analysis; format: functional, organism-based; settings: time 21.0 day
[18] = system: Rattus norvegicus; assay: Analgesic activity in Freund's complete adjuvant induced Lewis rat model of arthritis assessed as increase in mechanical paw withdrawal threshold at 20 mg/kg, po administered every 24 to 48 hrs for 28 days post immunization starting from day 8 post immunization; format: functional, organism-based; settings: time 21.0 day
[19] = system: Rattus norvegicus; assay: Antiarthritic activity in Freund's complete adjuvant induced Lewis rat model of arthritis assessed as reduction in IL-17 protein expression at 20 mg/kg, po administered every 24 to 48 hrs for 28 days post immunization starting from day 8 post immunization by Western blot analysis; format: functional, organism-based; settings: time 21.0 day
[20] = system: Rattus norvegicus; assay: Antiarthritic activity in Freund's complete adjuvant induced Lewis rat model of arthritis assessed as reduction in RORgammat protein expression at 20 mg/kg, po administered every 24 to 48 hrs for 28 days post immunization starting from day 8 post immunization by Western blot analysis; format: functional, organism-based; settings: time 21.0 day
[21] = Hepatotoxicity in male Wistar rat assessed as effect on glutamic pyruvic transaminase level at 20 mg/kg, po administered for 3 days; format: toxicity, organism-based; settings: in vivo, 72 h, time 3 day
[22] = biological target: T1, Prostaglandin G/H synthase 2 (Mus musculus) (UniProt Q05769); assay: Binding affinity to COX-2 in LPS-induced mouse RAW264.7 cells assessed as thermal stability at 30 uM pretreated with LPS for 24 hrs followed by compound addition and measured after 2 hrs by CETSA; format: cell-based
T1 sequence (whole entry): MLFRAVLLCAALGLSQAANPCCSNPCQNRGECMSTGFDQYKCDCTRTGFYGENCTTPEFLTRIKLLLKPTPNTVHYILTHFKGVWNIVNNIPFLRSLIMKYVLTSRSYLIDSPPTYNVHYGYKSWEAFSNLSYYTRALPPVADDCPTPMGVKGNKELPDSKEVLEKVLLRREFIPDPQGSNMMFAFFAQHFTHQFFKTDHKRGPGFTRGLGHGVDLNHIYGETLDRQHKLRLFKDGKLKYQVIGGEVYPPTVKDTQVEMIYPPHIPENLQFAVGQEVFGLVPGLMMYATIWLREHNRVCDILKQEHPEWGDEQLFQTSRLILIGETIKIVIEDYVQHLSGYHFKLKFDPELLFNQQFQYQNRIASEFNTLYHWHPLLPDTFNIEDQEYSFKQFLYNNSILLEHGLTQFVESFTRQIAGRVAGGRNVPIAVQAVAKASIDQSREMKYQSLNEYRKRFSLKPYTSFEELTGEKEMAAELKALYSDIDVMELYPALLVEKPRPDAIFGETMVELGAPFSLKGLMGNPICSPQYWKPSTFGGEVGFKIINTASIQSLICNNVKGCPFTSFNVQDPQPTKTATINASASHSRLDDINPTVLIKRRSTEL

Activity [22]: Active
Compound: CCCCC/C=C\C/C=C\C/C=C\C/C=C\CC/C=C(/OC(=O)C(C)c1ccc(C(=O)c2ccccc2)cc1)C(F)(F)F (configuration not stated)
Activity [1]: Active
Activity [2]: Dose-Dependent Effect
Activity [3]: Active
Activity [4]: 14%
Activity [5]: 0%
Activity [6]: Active
Activity [7]: Active
UI [8]: 0
UI [9]: 8
Activity [10]: Active
Activity [11]: 86%
Activity [12]: Non-Toxic
Activity [13]: Non-Toxic
Activity [14]: Dose-Dependent Effect
Activity [15]: Active
Activity [16]: Active
Activity [17]: Active
Activity [18]: Active
Activity [19]: Active
Activity [20]: Active
Activity [21]: Non-Toxic
